Consider one compound from ChEMBL document CHEMBL5500413, “Discovery of Novel Receptor Tyrosine Kinase-like Orphan Receptor 1 (ROR1) Inhibitors for Cancer Treatment” (J Med Chem, 2024).

Assay [1] concerns the target Inactive tyrosine-protein kinase transmembrane receptor ROR1 (Homo sapiens, UniProt Q01973). In words: Binding affinity to ROR1 kinase domain (453 to 783 residues) (unknown origin) assessed as dissociation constant by SPR analysis. (SPR reads the build-up and loss of mass on a sensor chip optically.)
Assay [2] deals with NCI-H1975. The experiment in a line: Antiproliferative activity against human NCI-H1975 cells harboring high ROR1 expression assessed as inhibition of cell growth incubated for 72 hrs by MTT assay. The assay is classed as functional, cell-based. The following applies: NCI-H1975, 72 h. (Formazan colour is commonly taken as a measure of viable cells.)
The test system of assay [3] is A549. In words: Antiproliferative activity against human A549 cells harboring high ROR1 expression assessed as inhibition of cell growth incubated for 72 hrs by MTT assay. The assay is classed as functional, cell-based. The following applies: A549, 72 h.
For assay [4], the system named is MDA-MB-231. In words: Antiproliferative activity against human MDA-MB-231 cells harboring high ROR1 expression assessed as inhibition of cell growth incubated for 72 hrs by MTT assay. The following applies: MDA-MB-231, 72 h. It counts as functional, cell-based.

pIC50, pKd: −log10 of the molar value.

Inactive tyrosine-protein kinase transmembrane receptor ROR1, sequence (Q01973 whole entry, the tested form may be a part): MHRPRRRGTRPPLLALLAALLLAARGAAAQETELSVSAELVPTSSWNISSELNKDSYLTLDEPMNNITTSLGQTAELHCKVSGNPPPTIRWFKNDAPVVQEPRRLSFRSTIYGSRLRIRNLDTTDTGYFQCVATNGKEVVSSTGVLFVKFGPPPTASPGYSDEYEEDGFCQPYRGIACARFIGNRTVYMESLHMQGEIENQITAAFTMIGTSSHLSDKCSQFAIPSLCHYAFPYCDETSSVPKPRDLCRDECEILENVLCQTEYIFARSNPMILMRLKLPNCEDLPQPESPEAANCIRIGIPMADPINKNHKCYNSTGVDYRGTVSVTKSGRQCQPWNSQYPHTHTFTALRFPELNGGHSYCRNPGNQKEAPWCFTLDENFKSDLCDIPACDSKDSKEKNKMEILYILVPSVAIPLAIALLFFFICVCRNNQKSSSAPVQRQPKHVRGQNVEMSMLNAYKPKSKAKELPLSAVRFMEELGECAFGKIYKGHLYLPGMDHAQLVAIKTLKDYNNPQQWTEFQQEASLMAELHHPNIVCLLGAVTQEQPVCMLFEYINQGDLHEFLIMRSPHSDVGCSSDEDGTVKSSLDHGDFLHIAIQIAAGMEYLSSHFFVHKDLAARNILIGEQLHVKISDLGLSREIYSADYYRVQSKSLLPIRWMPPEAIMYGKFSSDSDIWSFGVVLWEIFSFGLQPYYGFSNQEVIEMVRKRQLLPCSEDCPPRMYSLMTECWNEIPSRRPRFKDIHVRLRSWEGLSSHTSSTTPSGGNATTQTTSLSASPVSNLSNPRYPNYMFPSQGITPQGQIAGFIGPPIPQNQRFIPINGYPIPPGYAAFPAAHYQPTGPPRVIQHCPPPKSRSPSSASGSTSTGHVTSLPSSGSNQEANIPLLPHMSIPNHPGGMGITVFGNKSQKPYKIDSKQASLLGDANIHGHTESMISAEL

For `Cc1ccc(C(=O)Nc2cccc(N(C)C)c2)cc1C#Cc1cnc2cccnn12`, the negative logarithm of the Kd (pKd) in assay [1] was 5.08. For the same compound, the negative logarithm of the IC50 (pIC50) in assay [2] is 4.18; in assay [3] it was 4.56; in assay [4] it was 4.50.

A word on the pKd: it is the negative decadic logarithm of the Kd, by convention in mol/L. For orientation: pIC50 means the IC50 on a negative log10 scale, so that one unit is a factor of ten.
